Measurements from patent US8877748B2, “Heterocyclic fused anthraquinone derivatives, manufacturing method and pharmaceutical composition using thereof” (National Defense Medical Center, priority 2012, dated 2014).

How the values were obtained:
ACHN = assay: NCI one-dose screening, renal cancer ACHN; type: cell-based, human; settings: 10 μM
NCI-H226 = assay: NCI one-dose screening, non-small cell lung cancer NCI-H226; type: cell-based, human; settings: 10 μM
BT-549 = assay: NCI one-dose screening, breast cancer BT-549; type: cell-based, human; settings: 10 μM
CAKI-1 = assay: NCI one-dose screening, renal cancer CAKI-1; type: cell-based, human; settings: 10 μM
PRMI-8226 cell line = assay: NCI one-dose screening, leukemia PRMI-8226; type: cell-based, human; settings: 10 μM
NCI-H522 = assay: NCI one-dose screening, non-small cell lung cancer NCI-H522; type: cell-based, human; settings: 10 μM
[1] = NCI one-dose screening, renal cancer A489; type: cell-based, human; settings: 10 μM
NCI-H460 = assay: NCI one-dose screening, non-small cell lung cancer NCI-H460; type: cell-based, human; settings: 10 μM
HOP-92 = assay: NCI one-dose screening, non-small cell lung cancer HOP-92; type: cell-based, human; settings: 10 μM
[2] = test system: PC-3 prostate cancer cell line; assay: SRB assay cell viability, PC-3 prostate cancer cell line; type: cell-based, human; settings: Homo sapiens, PC-3 prostate cancer cell line, Table II prints no unit, μM printed, read-out: SRB assay: 50% inhibition of cancer cell proliferation of sample concentration (IC50) of PC-3 prostate cancer cell line
HOP-62 = assay: NCI one-dose screening, non-small cell lung cancer HOP-62; type: cell-based, human; settings: 10 μM
UACC-257 = assay: NCI one-dose screening, melanoma UACC-257; type: cell-based, human; settings: 10 μM
DU145 = assay: NCI one-dose screening, prostate cancer DU145; type: cell-based, human; settings: 10 μM
OVCAR-5 = assay: NCI one-dose screening, ovarian cancer OVCAR-5; type: cell-based, human; settings: 10 μM
human tumor cell lines = assay: NCI one-dose screening, Mean / Delta / Range of growth percent over all tested cell lines; type: cell-based; settings: 10 μM
A549/ATCC = assay: NCI one-dose screening, non-small cell lung cancer A549/ATCC; type: cell-based, human; settings: 10 μM
NCl/ADR-RES = assay: NCI one-dose screening, breast cancer NCl/ADR-RES; type: cell-based, human; settings: 10 μM; listed under Ovarian cancer
HCT-15 = assay: NCI one-dose screening, colon cancer HCT-15; type: cell-based, human; settings: 10 μM
M14 = assay: NCI one-dose screening, melanoma M14; type: cell-based, human; settings: 10 μM
OVCAR-3 = assay: NCI one-dose screening, ovarian cancer OVCAR-3; type: cell-based, human; settings: 10 μM
786-O = assay: NCI one-dose screening, renal cancer 786-O; type: cell-based, human; settings: 10 μM
T-47D = assay: NCI one-dose screening, breast cancer T-47D; type: cell-based, human; settings: 10 μM
UACC-62 = assay: NCI one-dose screening, melanoma UACC-62; type: cell-based, human; settings: 10 μM
OVCAR-8 = assay: NCI one-dose screening, ovarian cancer OVCAR-8; type: cell-based, human; settings: 10 μM
K562cell line = assay: NCI one-dose screening, leukemia K562; type: cell-based, human; settings: 10 μM
SK-MEL-5 = assay: NCI one-dose screening, melanoma SK-MEL-5; type: cell-based, human; settings: 10 μM
SK-OV-3 = assay: NCI one-dose screening, ovarian cancer SK-OV-3; type: cell-based, human; settings: 10 μM
SNB-75 = assay: NCI one-dose screening, CNS cancer SNB-75; type: cell-based, human; settings: 10 μM
LOX IMVI = assay: NCI one-dose screening, melanoma LOX IMVI; type: cell-based, human; settings: 10 μM
KM12 = assay: NCI one-dose screening, colon cancer KM12; type: cell-based, human; settings: 10 μM
SK-MEL-2 = assay: NCI one-dose screening, melanoma SK-MEL-2; type: cell-based, human; settings: 10 μM
SNB-19 = assay: NCI one-dose screening, CNS cancer SNB-19; type: cell-based, human; settings: 10 μM
TK-10 = assay: NCI one-dose screening, renal cancer TK-10; type: cell-based, human; settings: 10 μM
EKVX = assay: NCI one-dose screening, non-small cell lung cancer EKVX; type: cell-based, human; settings: 10 μM
SF-539 = assay: NCI one-dose screening, CNS cancer SF-539; type: cell-based, human; settings: 10 μM
RXF, 393 = assay: NCI one-dose screening, renal cancer RXF, 393; type: cell-based, human; settings: 10 μM
U251 = assay: NCI one-dose screening, CNS cancer U251; type: cell-based, human; settings: 10 μM
NCI-H23 = assay: NCI one-dose screening, non-small cell lung cancer NCI-H23; type: cell-based, human; settings: 10 μM
IGROV1 = assay: NCI one-dose screening, ovarian cancer IGROV1; type: cell-based, human; settings: 10 μM
SK-MEL-28 = assay: NCI one-dose screening, melanoma SK-MEL-28; type: cell-based, human; settings: 10 μM
MCF7 = assay: NCI one-dose screening, breast cancer MCF7; type: cell-based, human; settings: 10 μM
MDA-MB-231/ATCC = assay: NCI one-dose screening, breast cancer MDA-MB-231/ATCC; type: cell-based, human; settings: 10 μM
PC-3 = assay: NCI one-dose screening, prostate cancer PC-3; type: cell-based, human; settings: 10 μM
SN12C = assay: NCI one-dose screening, renal cancer SN12C; type: cell-based, human; settings: 10 μM
HS 578-T = assay: NCI one-dose screening, breast cancer HS 578-T; type: cell-based, human; settings: 10 μM; Breast cancer
COLO 205 = assay: NCI one-dose screening, colon cancer COLO 205; type: cell-based, human; settings: 10 μM
SR = assay: NCI one-dose screening, leukemia SR; type: cell-based, human; settings: 10 μM
MOLT-4 = assay: NCI one-dose screening, leukemia MOLT-4; type: cell-based, human; settings: 10 μM
UO-31 = assay: NCI one-dose screening, renal cancer UO-31; type: cell-based, human; settings: 10 μM
MALME-3M = assay: NCI one-dose screening, melanoma MALME-3M; type: cell-based, human; settings: 10 μM
HCC-2998 = assay: NCI one-dose screening, colon cancer HCC-2998; type: cell-based, human; settings: 10 μM
MDA, -MB-435 = assay: NCI one-dose screening, breast cancer MDA, -MB-435; type: cell-based, human; settings: 10 μM; listed under Melanoma
HL-60, TB = assay: NCI one-dose screening, leukemia HL-60, TB; type: cell-based, human; settings: 10 μM
HCT-116 = assay: NCI one-dose screening, colon cancer HCT-116; type: cell-based, human; settings: 10 μM
SF-268 = assay: NCI one-dose screening, CNS cancer SF-268; type: cell-based, human; settings: 10 μM
MDA-MB-468 = assay: NCI one-dose screening, breast cancer MDA-MB-468; type: cell-based, human; settings: 10 μM
HT29 = assay: NCI one-dose screening, colon cancer HT29; type: cell-based, human; settings: 10 μM

## COc1ccc(Sc2cc3c(c4nsnc24)C(=O)c2ccccc2C3=O)cc1 [C41, 4-(4-methoxy-phenyl-thio)anthra[2,1-c] [1,2,5]thiadiazol-6,11-dione]
ACHN
  Growth Percent ACHN: 102.26%
NCI-H226
  Growth Percent NCI-H226: 79.51%
BT-549
  Growth Percent BT-549: 92.92%
CAKI-1
  Growth Percent CAKI-1: 108.29%
PRMI-8226 cell line
  Growth Percent RPMI-8226: 101.16%
NCI-H522
  Growth Percent NCI-H522: 95.69%
[1]
  Growth Percent A498: 84.77%
NCI-H460
  Growth Percent NCI-H460: 107.16%
HOP-92
  Growth Percent HOP-92: 91.38%
[2]
  IC50: > 15 µM
HOP-62
  Growth Percent HOP-62: 95.20%
UACC-257
  Growth Percent UACC-257: 118.11%
DU145
  Growth Percent DU145: 112.48%
OVCAR-5
  Growth Percent OVCAR-5: 103.00%
Human tumor cell lines; delta over all cell lines
  Growth Percent Delta: 32.46%
Human tumor cell lines; mean over all cell lines
  Growth Percent Mean: 1000.77%
Human tumor cell lines; range over all cell lines
  Growth Percent Range: 80.45%
A549/ATCC
  Growth Percent A549/ATCC: 103.32%
NCl/ADR-RES
  Growth Percent NCI/ADR-RES: 97.60%
HCT-15
  Growth Percent HCT-15: 109.35%
M14
  Growth Percent M14: 92.89%
OVCAR-3
  Growth Percent OVCAR-3: 109.57%
786-O
  Growth Percent 786-0: 94.93%
T-47D
  Growth Percent T-47D: 89.66%
UACC-62
  Growth Percent UACC-62: 108.99%
OVCAR-8
  Growth Percent OVCAR-8: 99.50%
K562cell line
  Growth Percent K562: 91.98%
SK-MEL-5
  Growth Percent SK-MEL-5: 106.14%
SK-OV-3
  Growth Percent SK-OV-3: 106.18%
SNB-75
  Growth Percent SNB-75: 79.05%
LOX IMVI
  Growth Percent LOX IMVI: 90.24%
KM12
  Growth Percent KM12: 101.28%
SK-MEL-2
  Growth Percent SK-MEL-2: 99.24%
SNB-19
  Growth Percent SNB-19: 113.97%
TK-10
  Growth Percent TK-10: 135.79%
EKVX
  Growth Percent EKVX: 148.76%
SF-539
  Growth Percent SF-539: 93.53%
RXF, 393
  Growth Percent RXF 393: 109.28%
U251
  Growth Percent U251: 102.73%
NCI-H23
  Growth Percent NCI-H23: 89.13%
IGROV1
  Growth Percent IGROV1: 103.17%
SK-MEL-28
  Growth Percent SK-MEL-28: 115.63%
MCF7
  Growth Percent MCF7: 93.78%
MDA-MB-231/ATCC
  Growth Percent MDA-MB-231/ATCC: 87.58%
PC-3
  Growth Percent PC-3: 82.81%
SN12C
  Growth Percent SN12C: 106.54%
HS 578-T
  Growth Percent HS 578T: 96.71%
COLO 205
  Growth Percent COLO 205: 112.25%
SR
  Growth Percent SR: 101.71%
MOLT-4
  Growth Percent MOLT-4: 82.89%
UO-31
  Growth Percent UO-31: 68.31%
MALME-3M
  Growth Percent MALME-3M: 89.52%
HCC-2998
  Growth Percent HCC-2998: 106.85%
MDA, -MB-435
  Growth Percent MDA-MB-435: 118.61%
HL-60, TB
  Growth Percent HL-60(TB): 102.73%
HCT-116
  Growth Percent HCT-116: 94.64%
SF-268
  Growth Percent SF-268: 94.81%
MDA-MB-468
  Growth Percent MDA-MB-468: 112.95%
HT29
  Growth Percent HT29: 101.30%
